According to PMC11204205 (Science Advances, 2024):

Molecular target: PKMζ (protein kinase Mzeta) (Homo sapiens, UniProt Q05513)
Experiment: split-Venus BiFC of KIBRA-PKMζ dimerization in HEK293T cells
Type: cell-based

PKMζ (protein kinase Mzeta), sequence (Q05513 184-592 limits assumed): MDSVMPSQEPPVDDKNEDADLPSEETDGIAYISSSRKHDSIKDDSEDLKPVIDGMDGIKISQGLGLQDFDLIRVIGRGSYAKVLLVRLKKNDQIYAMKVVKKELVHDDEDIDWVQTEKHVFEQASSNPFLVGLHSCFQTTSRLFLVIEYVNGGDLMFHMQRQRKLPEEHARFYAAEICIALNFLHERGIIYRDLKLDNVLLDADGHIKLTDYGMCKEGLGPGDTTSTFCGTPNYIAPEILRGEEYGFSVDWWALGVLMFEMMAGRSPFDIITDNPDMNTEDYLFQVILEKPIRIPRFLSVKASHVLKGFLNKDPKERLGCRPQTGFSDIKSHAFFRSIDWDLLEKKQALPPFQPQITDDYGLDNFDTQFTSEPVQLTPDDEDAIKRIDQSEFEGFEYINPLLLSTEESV
PKMζ (protein kinase Mzeta), sequence (Q8IX03 whole entry partner): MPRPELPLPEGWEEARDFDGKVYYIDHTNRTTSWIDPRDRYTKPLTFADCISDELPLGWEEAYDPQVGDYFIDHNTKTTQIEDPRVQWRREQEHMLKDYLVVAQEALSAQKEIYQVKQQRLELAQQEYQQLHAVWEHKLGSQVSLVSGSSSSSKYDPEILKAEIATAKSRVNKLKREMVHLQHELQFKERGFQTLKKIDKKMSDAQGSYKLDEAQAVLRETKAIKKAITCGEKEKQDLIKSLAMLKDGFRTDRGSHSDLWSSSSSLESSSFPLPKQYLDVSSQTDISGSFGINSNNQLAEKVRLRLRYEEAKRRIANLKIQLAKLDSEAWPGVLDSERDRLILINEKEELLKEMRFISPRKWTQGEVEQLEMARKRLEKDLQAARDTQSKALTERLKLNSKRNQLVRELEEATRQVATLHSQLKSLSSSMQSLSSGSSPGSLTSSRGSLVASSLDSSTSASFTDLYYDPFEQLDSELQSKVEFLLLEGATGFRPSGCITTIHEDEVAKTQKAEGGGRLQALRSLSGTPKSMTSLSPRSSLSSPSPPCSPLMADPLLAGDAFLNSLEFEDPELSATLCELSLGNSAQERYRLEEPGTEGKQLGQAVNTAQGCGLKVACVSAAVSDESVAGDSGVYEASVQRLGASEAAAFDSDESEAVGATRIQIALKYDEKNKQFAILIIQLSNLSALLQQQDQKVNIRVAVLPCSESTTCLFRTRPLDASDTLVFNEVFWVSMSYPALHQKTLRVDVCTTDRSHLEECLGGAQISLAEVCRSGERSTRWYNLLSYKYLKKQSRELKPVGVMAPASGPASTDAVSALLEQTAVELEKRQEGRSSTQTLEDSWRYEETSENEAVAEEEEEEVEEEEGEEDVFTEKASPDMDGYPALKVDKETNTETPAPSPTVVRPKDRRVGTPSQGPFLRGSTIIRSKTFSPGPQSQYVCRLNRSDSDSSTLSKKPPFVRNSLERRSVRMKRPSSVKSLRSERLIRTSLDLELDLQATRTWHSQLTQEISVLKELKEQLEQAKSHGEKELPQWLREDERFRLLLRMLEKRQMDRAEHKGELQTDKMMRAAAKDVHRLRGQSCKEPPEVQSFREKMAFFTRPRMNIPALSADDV

IC50: ~1000 nM
Compound: O=S(=O)(O)c1cc(O)c2c(S(=O)(=O)O)cc(S(=O)(=O)O)cc2c1 [ζ-stat, 1-naphthol-3,6,8-trisulfonic acid]
